# From US4835160A, “Derivatives of pyridoindole, having anti-tumor properties” (Sanofi, priority 1986, dated 1989)
# Several values for one entry are separate records, joined by “and”; a condition that tells them apart may be missing. Equal values may be shown once. Where a name gives a salt, the structure may show the parent alone. Read-outs that look alike come from different tables or passages of the source.
# Legend:
# [1] = tested on: leukemia tumour line L 1210; assay: In vitro cytotoxic activity on leukemia tumour line L 1210; type: cell-based; details: L 1210, 48 hours contact, 37° C., read-out: I D 50 (concentration which inhibits the proliferation of the cells by 50%)
# Protocol: (1) In vitro: ([…] et al., Chem. Biol. Interaction, 1979, 25, 45-58). The cytotoxic activity of the compounds of the invention has been evaluated by in vitro tests. These tests consist of adding increasing concentrations of the compound under test to a cellular culture of the leukemia tumour line L 1210 in an exponential phase of growth. The cellules are incubated at 37° C. in a CO2 incubator and counted every 24 hours. The calculation of the I D 50 (concentration of the product, expressed in 1^-1 micromole, which inhibits the proliferation of the cells by 50%) is made after 48 hours contact.
# leukemia P 388 = assay: Test of leukemia P 388; IP/IP, D1-5; type: in vivo, CDF1 hybrid mice; details: D1-D5; for Number of survivors: day D30; for T/C %: survival time
# Protocol: (2) In vivo: (GERAN et al., Cancer Chemother., 1972, 2, 07-57):
# (§1) The antitumour activity was tested in vivo on various tumours inoculated in various ways according to the following general protocol:
# (§2) All the male or female mice are inoculated on day D0 with a known quantity of viable tumour cells for ascitic tumours or with a known tumour fragment for solid tumours.
# (§3) They are then distributed into various groups. Each group, corresponding to the animals treated by the product under test, is made up of 10 mice. The product under test is dissolved in distilled water and it is administered n times (Dx-Dy), n, y, and x varying according to the protocol chosen, at the rate of 0.1 ml of solution per 10 g by weight of mice treated and at specific doses for each protocol.
# (§4) The "negative control" group, corresponding to the animals which are not treated by the product, contains 2√N animals, N being equal to or greater than the total number of mice treated by the product in the same experiment.
# (§5) Finally, the tests can also be carried out at the same time as the study of a group called "positive control", of ten animals, which is treated by a molecule, known for its antitumour activity and which can vary according to the protocol chosen, in the same conditions as the groups treated by the product under test.
# (§6) The antitumour activity is evaluated, in the case of ascitic tumours, by considering the increase in the survival time of the animals treated in comparison to that of the animals in the "negative control" group, according to the formula: [formula]
# The criterion for activity varies according to the protocol.
# (§7) Also, a product is considered as toxic at the dose studied when this T/C value is equal to or less than 85%. In addition, a product is also considered as toxic at the dose studied when the weight variation, expressed in grams and calculated by the formula: […]
# "Average weight of the group measured on day 5--Average weight of the same group measured on day 1"
# is equal to or less than 4 g.
# (a) Test of lelukemia P 388; IP/IP, D1-5 (GERAN et al., Cancer Chemother., 1972, 2, 07-57).
# (§8) The tests are carried out with CDF1 hybrid mice inoculated by intraperitoneal route with 10^6 leukemia cells from the P 388 line. The compound under test is administered for 5 successive days (D1-D5) by intraperitoneal route. The positive control for the test is 5-fluorouracile which is administered in the same conditions. The number of surviving animals is evaluated on day D30.
# leukemia P388 = assay: Test for leukemia P388, IP/IP, D1; type: in vivo, CDF1 hybrid mice; details: 200 mg/kg IP
# Protocol: as §1, §2, §3, §4, §5, §6, §7, §8
# (b) Test for Leukemia P388, IP/IP, D1 (GERAN et al. Cancer chemother., 1972, 2, 07-57).
# The test is carried out according to the preceding protocol, the compound under test being administered only on day D1.
# leukemia L 1210 = assay: Test for leukemia L 1210, IP/IP, D1-D5; type: in vivo, CDF1 hybrid mice; details: 20 mg/kg IP
# Protocol: as §1, §2, §3, §4, §5, §6, §7
# (c) Test for leukemia L 1210, IP/IP, D-5 (GERAN et al., Cancer cheomother.,1972, 2, 07-57).
# as §8, with “10^5” for “10^6”, “L 1210” for “P 388”, “5” for “5 successive”, “5-fluorouracile” for “5-fluorouracile which is”, “D60.” for “D30.”
# melanoma B 16 = assay: Test for melanoma B 16; type: in vivo, BDF1 hybrid mice; details: 0.5 mg/kg IP, D1-D9
# Protocol: as §1, §2, §3, §4, §5, §6, §7
# (d) Test for melanoma B 16 (GERAN et al., Cancer Chemother., 1972, 2, 07-75).
# The tests are carried out with BDF1 hybrid mice inoculated by intraperitoneal route with 0.5 ml of a homogenate of melanoma B 16 made up from 1 g of tumour in 10 ml of physiological serum. The compound under test is administered for 9 days (D1-D9) by intraperitoneal route. The positive control for the test is Cis-Platine administered in the same conditions. The number of surviving animals is evaluated on day D60.
# reticulosarcoma M5-M5076 = assay: Test for reticulosarcoma M5-M5076; type: in vivo, BDF1 hybrid mice; details: 160 mg/kg IP, D1,5,9,13,17
# Protocol: as §1, §2, §3, §4, §5, §6, §7
# The tests are carried out with BDF1 hybrid mice inoculated by intraperitoneal route with 10^6 cells of the M5-M5076 line. The compound under test is administered 5 times successively in sequence (D1,5,9,13,17) by intraperitoneal route. The positive control for the test is cyclophosphamide administered in the same conditions. The number of surviving animals is evaluated on day D75.
smiles,measurement,setting,value
"COc1ccc2c(c1)c1c(NCC(C)CN(C)C)ncc(C)c1n2C (racemic) [Derivative No. 20, 4,5-dimethyl-1-(3-dimethylamino-2-methylpropylamino)-8-methoxy-5pyrido[4,3-b]i dihydrochloride]",IC50,"[1]; Mus musculus, L1210, 48 h",1000 nM
"Cc1cnc(NCC(C)CN(C)C)c2c3cc(O)ccc3n(C)c12 (racemic) [Derivative No. 21, 4,5-dimethyl-1-(3-dimethylamino-2-methylpropylamino)-8-hydroxy-5H-pyrido[4,3-b]dihydrochloride]",IC50,"[1]; Mus musculus, L1210, 48 h",10 nM
"O=c1[nH]cc(F)c(=O)[nH]1 [5-Fluorouracile, 5-fluorouracile, reference compound]",Median day of survival,leukemia P 388; 20 mg/kg IP,20.1 days and 18.9 days and 19 days and 17.75 days and 16.7 days and 18.8 days and 20 days and 17 days
same,Number of survivors,leukemia P 388; 20 mg/kg IP,0/10
same,T/C %,leukemia P 388; 20 mg/kg IP,166% and 164% and 168% and 160% and 147% and 173% and 171% and 154%
same,Median day of survival,leukemia P388,19.0 days
same,Variation by weight,leukemia P388,-3.2 g
same,Number of survivors,leukemia P388; day D30,0/10
same,T/C %,leukemia P388; survival time,173%
same,Median day of survival,leukemia L 1210,16.0 days
same,Variation by weight,leukemia L 1210,-0.5 g
same,Number of survivors,leukemia L 1210; day D60,0/10
same,T/C %,leukemia L 1210; survival time,182%
"[NH2][Pt]([NH2])([Cl])[Cl] [Cis-Platine, reference compound]",Median day of survival,melanoma B 16,36 days and 30.0 days and 38.75 days
same,Variation by weight,melanoma B 16,-0.6 g
same,Number of survivors,melanoma B 16; day D60,0/10
same,T/C %,melanoma B 16; survival time,131% and 126% and 141%
"O=P1(N(CCCl)CCCl)NCCCO1 (stereo not shown) [Cyclopnospnamide, cyclophosphamide, reference compound]",Median day of survival,reticulosarcoma M5-M5076,> 60 days and 57.0 days
same,Number of survivors,reticulosarcoma M5-M5076; day D75,9/10 and 0/10
same,T/C %,reticulosarcoma M5-M5076; survival time,> 239% and 219% and > 234%
CCN(CC)CCCNc1ncc(C)c2[nH]c3ccccc3c12 [Derivative 1],IC50,"[1]; Mus musculus, L1210, 48 h",200 nM
Cc1cnc(NCCNCCO)c2c1[nH]c1ccccc12 [Derivative 3],IC50,"[1]; Mus musculus, L1210, 48 h",1140 nM
"Cc1cnc(NCCCN(C)C)c2c1[nH]c1ccccc12 [Derivative No. 2, 1-(3-dimethylaminopropylamino)-4-methyl-5H-pyrido-[4,3-b]indole]",IC50,"[1]; Mus musculus, L1210, 48 h",160 nM
"CCNCCCNc1ncc(C)c2[nH]c3ccc(OC)cc3c12 [Derivative No. 5, 1-(3-ethylaminopropylamino)-8-methoxy-4-methyl-5H-pyrido[4,3-b]indole]",IC50,"[1]; Mus musculus, L1210, 48 h",1200 nM
"CCN(CC)CCCNc1ncc(C)c2c1c1cc(OC)ccc1n2C [Derivative No. 6, 1-(3-diethylaminopropylamino)-4,5-dimethyl-8-methoxy-5H-pyrido[4,3-b]indole]",IC50,"[1]; Mus musculus, L1210, 48 h",100 nM
"CCN(CC)CCCNc1ncc(C)c2[nH]c3ccc(O)cc3c12 [Derivative No. 8, 1-(diethylaminopropylamino)-8-hydroxy-4-methyl-5H-pyrido[4,3-b]indole]",IC50,[1],80 nM
same,Median day of survival,leukemia P 388; 0.625 mg/kg IP,15.1 days
same,Variation by weight,leukemia P 388; 0.625 mg/kg IP,-0.5 g
same,Number of survivors,leukemia P 388; 0.625 mg/kg IP,0/10
same,T/C %,leukemia P 388; 0.625 mg/kg IP,136%
same,Median day of survival,leukemia P 388; 1.25 mg/kg IP,15.7 days
same,Variation by weight (g),leukemia P 388; 1.25 mg/kg IP,+0.6 g
same,Number of survivors,leukemia P 388; 1.25 mg/kg IP,0/10
same,T/C %,leukemia P 388; 1.25 mg/kg IP,141%
same,Median day of survival,leukemia P 388; 2.5 mg/kg IP,16.1 days
same,Variation by weight,leukemia P 388; 2.5 mg/kg IP,-1.2 g
same,Number of survivors,leukemia P 388; 2.5 mg/kg IP,0/10
same,T/C %,leukemia P 388; 2.5 mg/kg IP,147%
same,Median day of survival,leukemia P 388; 5 mg/kg IP,19.4 days
same,Variation by weight,leukemia P 388; 5 mg/kg IP,-0.8 g
same,Number of survivors,leukemia P 388; 5 mg/kg IP,0/10
same,T/C %,leukemia P 388; 5 mg/kg IP,175%
same,Median day of survival,leukemia P 388; 10 mg/kg IP,12.0 days
same,Variation by weight,leukemia P 388; 10 mg/kg IP,-1.1 g
same,Number of survivors,leukemia P 388; 10 mg/kg IP,0/10
same,T/C %,leukemia P 388; 10 mg/kg IP,108%
"COc1ccc2c(c1)c1c(NCCCN(C)C)ncc(C)c1n2C.Cl.Cl [Derivative No. 13, 4,5-dimethyl-1-(3-dimethylaminopropylamino)-8-methoxy-5H-pyrido[4,3-b]indole dihydrochloride]",IC50,"[1]; Mus musculus, L1210, 48 h",130 nM
same,Median day of survival,leukemia P 388; 5 mg/kg IP,14.1 days
same,Variation by weight (g),leukemia P 388; 5 mg/kg IP,+1.0 g
same,Number of survivors,leukemia P 388; 5 mg/kg IP,0/10
same,T/C %,leukemia P 388; 5 mg/kg IP,134%
same,Median day of survival,leukemia P 388; 10 mg/kg IP,16.8 days
same,Variation by weight (g),leukemia P 388; 10 mg/kg IP,+1.2 g
same,Number of survivors,leukemia P 388; 10 mg/kg IP,0/10
same,T/C %,leukemia P 388; 10 mg/kg IP,160%
same,Median day of survival,leukemia P 388; 20 mg/kg IP,15.8 days
same,Variation by weight (g),leukemia P 388; 20 mg/kg IP,+0.4 g
same,Number of survivors,leukemia P 388; 20 mg/kg IP,0/10
same,T/C %,leukemia P 388; 20 mg/kg IP,150%
same,Median day of survival,leukemia P 388; 40 mg/kg IP,8.4 days
same,Variation by weight,leukemia P 388; 40 mg/kg IP,-2.5 g
same,Number of survivors,leukemia P 388; 40 mg/kg IP,0/10
same,T/C %,leukemia P 388; 40 mg/kg IP,80%
"CCN(CC)CCCNc1ncc(C)c2c1c1ccccc1n2C [Derivative No. 16, 1-(3-diethylaminopropylamino)-4,5-dimethyl-5H-pyrido[4,3-b]indole dihydrochloride]",IC50,"[1]; Mus musculus, L1210, 48 h",720 nM
"CCN(CC)CCNc1ncc(C)c2c1c1cc(OC)ccc1n2C [Derivative No. 18, 1-(2-diethylaminoethylamino)-4,5-dimethyl-8-methoxy-5H-pyrido[4,3-b]indole dihydrochloride]",IC50,"[1]; Mus musculus, L1210, 48 h",1200 nM
"CCN(CC)CCCCNc1ncc(C)c2c1c1cc(OC)ccc1n2C [Derivative No. 22, 1-(4-diethylaminobutylamino)-4,5-dimethyl-8-methoxy-5H-pyrido[4,3-b]indoledihydrochloride]",IC50,"[1]; Mus musculus, L1210, 48 h",1300 nM
"CCN(CC)CCCCNc1ncc(C)c2c1c1cc(O)ccc1n2C [Derivative No. 23, 1-(4-diethylaminobutylamino)-4,5-dimethyl-8-hydroxy-5H-pyrido[4,3-b]indoledihydrochloride]",IC50,"[1]; Mus musculus, L1210, 48 h",310 nM
